In patent US10882844B2, “Compounds useful as immunomodulators” (Bristol-Myers Squibb Company, priority 2016, dated 2021):

The compounds below were run against PD-1/PD-L1 (Homo sapiens (Human), UniProt Q9NZQ7) (assay: PD-1/PD-L1 Homogenous Time-Resolved Fluorescence (HTRF) binding assay). Details: PD-1-Ig / PD-L1-His HTRF; value given as range class; read-out: Range or IC50.
Excerpt: The ability of the compounds of formula (I) to bind to PD-L1 was investigated using a PD-1/PD-L1 Homogenous Time-Resolved Fluorescence (HTRF) binding assay.
Homogenous Time-Resolved Fluorescence (HTRF) binding assay.
The interaction of PD-1 and PD-L1 can be assessed using soluble, purified preparations of the extracellular domains of the two proteins. The PD-1 and PD-L1 protein extracellular domains were expressed as fusion proteins with detection tags, for PD-1, the tag was the Fc portion of Immunoglobulin (PD-1-Ig) and for PD-L1 it was the 6 histidine motif (PD-L1-His). All binding studies were performed in an HTRF assay buffer consisting of dPBS supplemented with 0.1% […] bovine serum albumin and 0.05% (v/v) Tween-20. For the h/PD-L1-His binding assay, inhibitors were pre-incubated with PD-L1-His (10 nM final) for 15 m in 4 μl of assay buffer, followed by addition of PD-1-Ig (20 nM final) in 1 μl of assay buffer and further incubation for 15 m. HTRF detection was achieved using europium crypate-labeled anti-Ig (1 nM final) and allophycocyanin (APC) labeled anti-His (20 nM final). Antibodies were diluted in HTRF detection buffer and 5 μl was dispensed on top of the binding reaction. The reaction mixture was allowed to equilibrate for 30 minutes and the resulting signal (665 nm/620 nm ratio) was obtained using an EnVision fluorometer. Additional binding assays were established between the human proteins PD-1-Ig/PD-L2-His (20 & 5 nM, respectively) and CD8O-His/PD-L1-Ig (100 & 10 nM, respectively).
Recombinant Proteins: Human PD-1 (25-167) with a C-terminal human Fc domain of immunoglobulin G (Ig) epitope tag [hPD-1 (25-167)-3S-IG] and human PD-L1 (18-239) with a C-terminal His epitope tag [hPD-L1(18-239)-TVMV-His] were expressed in HEK293T cells and purified sequentially by ProteinA affinity chromatography and size exclusion chromatography. Human PD-L2-His and CD80-His was obtained through commercial sources.
The table below lists the IC50 values for representative examples of this disclosure measured in the PD-1/PD-L1 Homogenous Time-Resolved Fluorescence (HTRF) binding assay. Ranges are as follows: A=0.18 nM-0.99 nM; B=1.0 nM-5.0 nM; C=5.01 nM-10.1 nM; D=10.2 nM-200 nM; E=201 nM→10 uM

Chain of PD-1/PD-L1 (Q9NZQ7 other isoform, or with tags, fused parts or gaps): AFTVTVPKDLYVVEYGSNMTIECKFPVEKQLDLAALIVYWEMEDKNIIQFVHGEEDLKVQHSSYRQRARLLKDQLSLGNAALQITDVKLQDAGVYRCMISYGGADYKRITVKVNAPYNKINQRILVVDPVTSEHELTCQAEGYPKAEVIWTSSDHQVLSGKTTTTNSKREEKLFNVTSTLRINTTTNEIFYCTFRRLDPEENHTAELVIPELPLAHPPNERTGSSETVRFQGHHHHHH

Compared with `Cc1c(COc2cc(OCc3cncc(C#N)c3)c(CN3CCCC[C@H]3C(=O)O)cc2Cl)cccc1-c1ccc2oc(N3C[C@@H]4C[C@H]3CN4C)nc2c1` [Example 2002, (S)-1-(5-chloro-2-((5-cyanopyridin-3-yl)methoxy)-4-((2-methyl-3-(2-((1S,4S)-5-methyl-2,5-diazabicyclo[2.2.1]heptan-2-yl)benzo[d]oxazol-5-yl)benzyl)oxy)benzyl)piperidine-2-carboxylic Acid], `CCN(CC)C1CCC(c2nc3cc(-c4cccc(COc5cc(OCc6cncc(C#N)c6)c(CN6CCCC[C@H]6C(=O)O)cc5Cl)c4C)ccc3o2)CC1` (stereo partly drawn) [Example 1012, (S)-1-(5-chloro-2-((5-cyanopyridin-3-yl)methoxy)-4-((3-(2-(4-(diethylamino)cyclohexyl)benzo[d]oxazol-5-yl)-2-methylbenzyl)oxy)benzyl)piperidine-2-carboxylic Acid] is lower in IC50: 5.01 to 10.1 nM for the first, 0.18 to 0.99 nM for the second.

First: Cc1c(COc2cc(OCc3cncc(C#N)c3)c(CNC(C)(CO)CO)cc2Cl)cccc1-c1ccc2oc(N3CCN(C)CC3)nc2c1 [Example 2009]
Second: Cc1c(COc2cc(OCc3cncc(C#N)c3)c(CN[C@@](C)(CO)C(=O)O)cc2Cl)cccc1-c1ccc2oc(N3CCN(C)CC3)nc2c1 [Example 2011, (S)-2-((5-chloro-2-((5-cyanopyridin-3-yl)methoxy)-4-((2-methyl-3-(2-(4-methylpiperazin-1-yl)benzo[d]oxazol-5-yl)benzyl)oxy)benzyl)amino)-3-hydroxy-2-methylpropanoic Acid]
The IC50 of the first is lower: 0.18 to 0.99 nM for the first, 1 to 5 nM for the second.
